Data published in patent publication US20240166723A1, “MECHANOCHEMICAL GENERATION OF NOVEL COLLAGEN GEL ARCHITECTURES AND SCAFFOLDS” (Yale University, priority 2022, published 2024).

What was measured:
[1] = test system: MDA-MB-231 cells; experiment: Migration inhibition drug assay: MDA-MB-231 cell migration in 3D collagen; format: cell-based, human; settings: thick collagen, day0 and day1; GM6001 20 μM, Y27632 30 μM, ML141 10 μM, SMIFH2 50 μM, NSC23766 100 μM
Method: (§1) To investigate the specific molecular mechanism behind the elevated migration of MDA-MB-231 cells in thick collagen, the following drugs were tested in these gels: pan-MMP inhibitor GM6001 (20 μM), potent selective Cdc42 inhibitor ML141 (10 μM), ROCK inhibitor Y27632 (30 μM), ARP2/3 inhibitor CK666 (50 μM), formin inhibitor SMIFH2 (50 μM) and Rac1 inhibitors NSC23766 (100 μM) and EHT1864 (20 μM). First cell morphology was traced and quantified. […] The graphic illustration of each morphological index can be found in FIG. 12B.
Apart from morphology signatures, cell migration was also tracked (FIG. 5A-C, FIG. 13A-B and FIG. 18A). […] GM6001-treated MDA-MB-231 cells in thick collagen migrated as actively as the DMSO control, both increased compared to cells in normal collagen. […] However, the interpretation of NSC23766 was confounded by the poor performance of another […]. NSC23766 binds directly to Rac1 and blocks the interaction between GEF Trio or Tiam (Gao et al., Proceedings Of The National Academy Of Sciences Of The United States Of America, 2004, 101, 7618-7623). EHT1864 binds to Rac1 but it is an allosteric inhibitor for guanine association. […] The differential preference between MDA-MB-231 cells for a stiff substrate and metastatic ovarian cancer cells (MOCC) for compliant substrate for migration (McGrail et al., Journal of Cell Science 2014, 127, 2621-2626); McGrail et al., Physical Biology 2015, 12, 026001) may be dictated by Rac1 and […], respectively.
(§2) Drugs were reconstituted and stored following manufacturers' recommendations and diluted in culture media to working concentrations. Specifically, 20 μM pan-MMPs inhibitor GM6001(Abcam, ab120845), 30 μM ROCK inhibitor Y27632 (Abcam, ab144494), 10 μM Cdc42 inhibitor ML141 (Calbiochem®217708), 50 μM formin inhibitor SMIFH2 (Abcam, ab218296), 50 μM ARP2/3 inhibitor CK666 (Abcam, ab141231), 100 μM Rac1 inhibitor NSC23766, 20 μM Rac1 inhibitor EHT1864 (Cayman 17258) were used. Fresh media mixed with specific drug were prepared right before experiment and replaced daily. In the drug assays, at least two independent experiments were performed with at least two replicates (technical duplicates) in each experiment.
Imaging was performed using a Leica SP8 confocal microscope. Time-lapse imaging (XYZT mode) was taken with a 20× objective (0.75 NA), with time interval set to 3 minutes or 6 minutes and z-step size set to 2 μm. Day0 time-lapse imaging was acquired between around 0hr to 12 hrs post embedding cells into gels. Day1 time-lapse imaging was acquired between around 24 hrs to 36 hrs post gel-embedment. Overview tilescan images were taken at day1, day2 or day5 respectively.
To track cell migration, XYZT data were first reduced in dimensions by conducting standard deviation projection along the z-axis. The XYT data were then processed by TrackMate in Fiji and produced cell trajectories. Trajectories were exported to MATLAB to calculate average speed and mean squared displacement. Average speed specifically refers to the mean of the absolute value of the net displacement of the cell center per hour. Mean squared displacements were computed with the following equation (Gorelik, Nature Protocols 2014, 9, 1931-1943): […]

[2] = test system: MDA-MB-231 cells; experiment: Morphology of MDA-MB-231 cells under drug treatment in normal versus thick collagen; format: cell-based, human; settings: for F-actin accumulation on the cell periphery / cell shape and protrusions: day2; for cell morphology versus control / cell shape and protrusions: normal and thick collagen; for cell morphology versus control: Y27632 30 μM, CK666 50 μM, SMIFH2 50 μM; for effect on cell morphology: normal collagen
Method: as §1, §2
In this equation, N is the total step number, n is the n-th step, x,y are the x,y coordinates respectively. For morphology analysis, z projected tilescan images were segmented and analyzed by in-house MATLAB codes. Segmentation performance was validated, with wrong segmentation manually corrected or removed. For difficult automatic segmentation data such as the Y27632 treated condition, manually tracked data were supplemented. The definitions of elongation, compactness, sphericity and shape variance were described in FIG. 4B (Liu, Scientific Reports 2022, 12, 791). A custom ImageJ script was used to derive the colocalization of the YAP/TAZ signal in the nucleus and cytoplasm. Specifically, the central plane of each cell is first extracted. DAPI and YAP/TAZ channels are then used to produce masks for cell nucleus and cell body respectively. Nucleus YAP/TAZ is calculated by averaging YAP/TAZ intensity within the nucleus mask and cytoplasmic YAP/TAZ is calculated by averaging YAP/TAZ intensity outside the nucleus mask but within cell body. To note, only YAP/TAZ of focal plane is used for average calculation. For thick collagen bundle size measurement, “Analyze Particle” function from Fiji was used.

[3] = test system: D1 murine mesenchymal stem cells (MSCs); experiment: MSC migration in collagen gels, time-lapse confocal cell tracking; settings: MSCs treated with inhibitors of myosin-based contractility, day 6
Method: To determine how island architecture modulates stem cell behavior, DI MSC's were seeded in gels that were adherent to polydopamine covered glass (FIG. 37). Polydopamine allows for collagen to remain anchored to surfaces for imaging and prevents total compaction of the gel during experiments (Park et al., ACS Applied Materials & Interfaces 2019, 11, 23919-23925). MSC migration in gels were then visualized. To capture cell migration in these gels, a stable LifeAct-RFP dye was transduced into MSCs and then these encapsulated cells were imaged with time-lapse confocal fluorescence microscopy. Cell tracking analysis was performed to determine migration metrics (FIG. 22A). The cells both 1 day after seeding and 6 days after seeding were imaged for 12 hour timelapses. […] After 6 days of culture, differences in migratory behavior were observed between MSCs cultured in different island gels (FIG. 22B).
D1 MSCs or D1 MSC-LifeActRFP cells were mixed with the collagen solution prior to gelation to achieve a final cell concentration of 15000 cells/ml. Cells were cultured in 50%/50% mixture of the osteogenic induction medium and adipogenic induction medium (differentiation medium). The differentiation medium contained 50 μg/ml L-ascorbic acid (MilliporeSigma), 10 mM β-glycerophosphate (MilliporeSigma), and 0.1 μM dexamethasone (MilliporeSigma) in the DMEM growth medium.
MSC time lapses were performed in 12 well glass bottom dishes which had been polydopamine coated. 12 hour time lapses were taken on Day 1 and Day 6. Automatic cell segmentation was obtained using Imaris (Oxford Instruments). Manual filtering was done to determine which cells were to be used for downstream analysis. From these segmentations, cell movement was tracked and metrics such as mean speed, sphericity, and migration track length over the timelapse were obtained. Mean speed is defined as the average of instantaneous speeds between timepoints.

[4] = test system: human pancreatic cancer cells PANC-1; settings: aligned matrix fiber; cited from earlier work
[5] = test system: chronic lymphocytic leukemia cells; settings: cited from earlier work
[6] = test system: OVCA429; settings: 2D conditions; cited from earlier work
[7] = test system: SKOV3ip; settings: 2D conditions; cited from earlier work
[8] = test system: PDGF-induced lamellipodia formation; settings: cited from earlier work

Row | Structure (SMILES) | MDA-MB-231 cell migration [1] | cell morphology versus control ([2]; NSC23766 100 μM) | effect on cell morphology [2] | cell migration track length [3] | cell shape and protrusions [2] | further results
1 | CCN(CC)CCCC(C)Nc1nc(C)cc(Nc2ccc3nc(C)cc(N)c3c2)n1 (centres unmarked) [NSC23766] | significantly reduced MDA-MB-231 cell migration | distinct morphologies compared with control | all cells are round | decreases in cell migration track length |  | cell size ([2]; NSC23766 100 μM): smaller than most other drug conditions; F-actin accumulation on the cell periphery [2]: clearly visible; cell movement [4]: inhibited cell movement, regardless of collagen fiber orientation; proliferation [5]: proliferation arrest
2 | COc1ccc(C2CC(c3ccccc3)=NN2c2ccc(S(N)(=O)=O)cc2)cc1 (centres unmarked) [ML141] | did not show significant inhibition |  | all cells are round |  |  | cell movement [4]: moved faster in aligned matrix fiber regardless of ML141 treatment; inhibition of migration [6]: does inhibit; inhibition of migration [7]: does inhibit
3 | C[C@@H](N)[C@H]1CC[C@H](C(=O)Nc2ccncc2)CC1 [Y27632] | significantly reduced MDA-MB-231 cell migration | distinct morphologies compared with control |  | decreases in cell migration track length | extremely long cell protrusions | 
4 | O=C1NC(=S)N(c2cccc(Br)c2)C(=O)/C1=C/c1ccco1 [SMIFH2] | significantly reduced MDA-MB-231 cell migration | distinct morphologies compared with control | all cells are round |  | round and lacked cell peripheral fluctuations | F-actin accumulation on the cell periphery [2]: lacked F-actin accumulation on the cell periphery
5 | CNC(=O)[C@H](Cc1c[nH]c2ccccc12)NC(=O)[C@@H](CC(=O)NO)CC(C)C [GM6001] | failed to inhibit MDA-MB-231 cell migration |  | all cells are round |  |  | 
6 | Cc1[nH]c2ccccc2c1CCNC(=O)c1ccccc1F [CK666] |  | distinct morphologies compared with control |  |  | elongated and stretched | 
7 | O=S(=O)(c1cccc2c(I)cccc12)N1CCCNCC1 [ML-7] |  |  |  | decreases in cell migration track length |  | 
8 | O=c1cc(CN2CCOCC2)occ1OCCCCCSc1ccnc2cc(C(F)(F)F)ccc12 [EHT1864] |  |  | all cells are round |  |  | PDGF-induced lamellipodia formation [8]: can inhibit PDGF-induced lamellipodia formation
